Patent US8680052B1, “Methods of treating, reducing the incidence of, and/or preventing ischemic events” (The Medicines Company, priority 2013, dated 2014)
Like-named read-outs stand apart in the source and are kept apart here.

Assays:
[1] = system: patients with acute coronary syndromes undergoing PCI; assay: Example 2: bleeding (GUSTO, TIMI, ACUITY) and adverse events up to 48 hours; assay type: in vivo, human
From the text: Multiple definitions of bleeding were used for full disclosure of bleeding risks associated with cangrelor: […] N Engl J Med 329:673-82 (1993); mild, moderate, or severe/life-threatening based on transfusion use and presence/absence of hemodynamic compromise); […] Investigators reported adverse and serious adverse events according to International Conference on Harmonization guidance (International Conference on Harmonization (ICH) Guidance Documents. U.S. Food and Drug Administration Web site. (Accessed on Oct. 8, 2009, at the FDA website beginning with “www.” and ending with “fda.gov/RegulatoryInformation/Guidances/ucm122049.htm”)).

[2] = system: patients undergoing percutaneous coronary intervention (PCI); details: for Mortality/Q-wave MI/IDR / Mortality/Q-wave MI/Stent thrombosis: exploratory; for Angiographic complications (site reported): Abrupt vessel closure / Angiographic complications (site reported): Acute stent thrombosis / Angiographic complications (site reported): Need for urgent CABG / Angiographic complications (site reported): New thrombus or suspected thrombus / Angiographic complications (site reported): Threatened abrupt closure / Angiographic complications (site reported): Unsuccessful procedure: index PCI
Procedure: The diagnosis of non-ST-segment elevation myocardial infarction required troponin I or T greater than the upper limit of normal within 24 hours of randomization (or if troponin results were unavailable at that time, creatine kinase-myocardial band isoenzyme [CK-MB] greater than the upper limit of normal). The diagnosis of unstable angina required ischemic chest discomfort occurring at rest and lasting ≧10 minutes within the 24 hours prior to randomization and dynamic electrocardiographic changes; age ≧65 years and/or diabetes mellitus were also required.
The primary efficacy endpoint was the composite of mortality, myocardial infarction, or ischemia-driven revascularization at 48 hours. The primary analysis was performed on a modified intent-to-treat population. Confirmatory analyses were performed on an intent-to-treat population. Secondary endpoints included the individual rates of mortality, myocardial infarction, new Q-wave myocardial infarction, ischemia-driven revascularization, abrupt vessel closure, or stroke at 48 hours. Mortality at 30 days and 1 year was also recorded. The clinical events committee adjudicated myocardial infarction, Q-wave myocardial infarction, ischemia-driven revascularization, stent thromboses, and stroke (ischemic or hemorrhagic). The definition of stent thrombosis was similar to the Academic Research Consortium definition of definite stent thrombosis. After review of the prespecified analyses, two exploratory endpoints less reliant on periprocedural biomarker ascertainment were examined. The exploratory endpoints, which were composed of prespecified and adjudicated endpoints, were the composite of mortality, Q-wave myocardial infarction, or ischemia-driven revascularization and the composite of mortality, Q-wave myocardial infarction, or stent thrombosis. Bleeding and adverse events through 48 hours were compared.
All efficacy analyses were performed on the modified intent-to-treat population, defined as all randomized patients who received at least one dose of study drug and underwent the index PCI. All safety-related analyses were performed on the safety population, which included all patients who received at least one dose of assigned study drug. Patients in the safety analyses were assigned to a treatment arm based on treatment actually received, not as randomized. Intent-to-treat analyses are also presented for full disclosure of results. All statistical tests were two-tailed using a level of significance of 0.05. […] Logistic regression was also used to analyze the majority of the remaining secondary endpoints.

`COC(=O)[C@H](c1ccccc1Cl)N1CCc2sccc2C1` [Clopidogrel, clopidogrel, reference compound] was tested, and the “ACUITY criteria Major bleeding” value ([1]; 48-hour, safety population) was 126 (2.9) no. (%), the “ACUITY criteria Minor bleeding” value ([1]; 48-hour, safety population) was 663 (15.2) no. (%) and the “Access site bleeding requiring radiologic or surgical intervention” value ([1]; 48-hour, safety population) was 10 (0.2) no. (%). For the same molecule, the Any blood transfusion ([1]; 48-hour, safety population) was 42 (1.0) no. (%), the Any platelet transfusion ([1]; 48-hour, safety population) was 5 (0.1) no. (%) and the “Drop in hemoglobin and/or hematocrit” value ([1]; 48-hour, safety population) was 63 (1.4) no. (%). For the same molecule, the Ecchymosis ([1]; 48-hour, safety population) was 234 (5.4) no. (%), the Epistaxis ([1]; 48-hour, safety population) was 22 (0.5) no. (%) and the “GUSTO criteria Mild bleeding” value ([1]; 48-hour, safety population) was 739 (16.9) no. (%). The “GUSTO criteria Moderate bleeding” value ([1]; 48-hour, safety population) was 34 (0.8) no. (%), the “GUSTO criteria Severe/life-threatening bleeding” value ([1]; 48-hour, safety population) was 11 (0.3) no. (%) and the “Hematoma <5 cm at puncture site” value ([1]; 48-hour, safety population) was 222 (5.1) no. (%). The “Hematoma ≧5 cm at puncture site” value ([1]; 48-hour, safety population) was 76 (1.7) no. (%), the Hemodynamic compromise ([1]; 48-hour, safety population) was 11 (0.3) no. (%) and the Intracranial hemorrhage ([1]; 48-hour, safety population) was 0 (0.0) no. (%). The Intraocular ([1]; 48-hour, safety population) was 0 (0.0) no. (%), the “Oozing at puncture site” value ([1]; 48-hour, safety population) was 319 (7.3) no. (%) and the Reoperation for bleeding ([1]; 48-hour, safety population) was 1 (0.0) no. (%). For the same molecule, the Retroperitoneal ([1]; 48-hour, safety population) was 10 (0.2) no. (%), the “TIMI criteria Major bleeding” value ([1]; 48-hour, safety population) was 14 (0.3) no. (%) and the “TIMI criteria Minor bleeding” value ([1]; 48-hour, safety population) was 26 (0.6) no. (%). For the same molecule, the Thrombocytopenia ([1]; 48-hour, safety population) was 7 (0.2) no. (%), the Dyspnea ([1]; human, in vivo, 48 h) was 0.4% and the Serious adverse events ([1]; human, in vivo, 48 h) was 2.7%. The “discontinuation of study drug due to an adverse event” value ([1]; human, in vivo, 48 h) was 0.5%, the Reported adverse events ([1]; safety population) was 25.7% and the All-cause mortality ([2]; 30-day, ITT) was 47 (1.8) no. (%). For the same molecule, the IDR ([2]; 30-day, ITT) was 49 (1.8) no. (%), the MI ([2]; 30-day, ITT) was 202 (7.6) no. (%) and the Mortality/MI/IDR ([2]; 30-day, ITT) was 254 (9.6) no. (%). For the same molecule, the “Q-wave MI” value ([2]; 30-day, ITT) was 15 (0.6) no. (%), the Stent thrombosis ([2]; 30-day, ITT) was 29 (1.1) no. (%) and the “Mortality/Q-wave MI/IDR” value ([2]; 30-day, ITT) was 94 (3.5) no. (%). The “Mortality/Q-wave MI/Stent thrombosis” value ([2]; 30-day, ITT) was 77 (2.9) no. (%), the All-cause mortality ([2]; 30-day, MITT) was 45 (1.7) no. (%) and the IDR ([2]; 30-day, MITT) was 46 (1.7) no. (%). For the same molecule, the MI ([2]; 30-day, MITT) was 201 (7.6) no. (%), the Mortality/MI/IDR ([2]; 30-day, MITT) was 249 (9.5) no. (%) and the “Q-wave MI” value ([2]; 30-day, MITT) was 14 (0.5) no. (%). The Stent thrombosis ([2]; 30-day, MITT) was 28 (1.1) no. (%), the “Mortality/Q-wave MI/IDR” value ([2]; 30-day, MITT) was 89 (3.4) no. (%) and the “Mortality/Q-wave MI/Stent thrombosis” value ([2]; 30-day, MITT) was 73 (2.8) no. (%). For the same molecule, the All-cause mortality ([2]; 30-day, Safety population) was 45 (1.7) no. (%), the IDR ([2]; 30-day, Safety population) was 47 (1.8) no. (%) and the MI ([2]; 30-day, Safety population) was 203 (7.7) no. (%). For the same molecule, the Mortality/MI/IDR ([2]; 30-day, Safety population) was 251 (9.5) no. (%), the “Q-wave MI” value ([2]; 30-day, Safety population) was 15 (0.6) no. (%) and the Stent thrombosis ([2]; 30-day, Safety population) was 28 (1.1) no. (%). For the same molecule, the “Mortality/Q-wave MI/IDR” value ([2]; 30-day, Safety population) was 90 (3.4) no. (%), the “Mortality/Q-wave MI/Stent thrombosis” value ([2]; 30-day, Safety population) was 74 (2.8) no. (%) and the All-cause mortality ([2]; 48-hour, ITT) was 19 (0.7) no. (%). The IDR ([2]; 48-hour, ITT) was 26 (1.0) no. (%), the MI ([2]; 48-hour, ITT) was 192 (7.2) no. (%) and the Mortality/MI/IDR ([2]; 48-hour, ITT) was 213 (8.0) no. (%). For the same molecule, the “Q-wave MI” value ([2]; 48-hour, ITT) was 9 (0.3) no. (%), the Stent thrombosis ([2]; 48-hour, ITT) was 16 (0.6) no. (%) and the Stroke ([2]; 48-hour, ITT) was 6 (0.2) no. (%). The “Mortality/Q-wave MI/IDR” value ([2]; 48-hour, ITT) was 44 (1.7) no. (%), the “Mortality/Q-wave MI/Stent thrombosis” value ([2]; 48-hour, ITT) was 36 (1.4) no. (%) and the All-cause mortality ([2]; 48-hour, MITT) was 18 (0.7) no. (%). For the same molecule, the IDR ([2]; 48-hour, MITT) was 24 (0.9) no. (%), the MI ([2]; 48-hour, MITT) was 191 (7.2) no. (%) and the “Mortality/MI/IDR (primary endpoint)” value ([2]; 48-hour, MITT) was 210 (8.0) no. (%). For the same molecule, the “Q-wave MI” value ([2]; 48-hour, MITT) was 8 (0.3) no. (%), the Stent thrombosis ([2]; 48-hour, MITT) was 16 (0.6) no. (%) and the Stroke ([2]; 48-hour, MITT) was 5 (0.2) no. (%). The “Mortality/Q-wave MI/IDR” value ([2]; 48-hour, MITT) was 41 (1.6) no. (%), the “Mortality/Q-wave MI/Stent thrombosis” value ([2]; 48-hour, MITT) was 34 (1.3) no. (%) and the “Mortality/Q-wave MI/IDR” value ([2]; 48-hour, Safety population) was 42 (1.6) no. (%). The “Mortality/Q-wave MI/Stent thrombosis” value ([2]; 48-hour, Safety population) was 35 (1.3) no. (%), the All-cause mortality ([2]; 48-hour, safety population) was 18 (0.7) no. (%) and the IDR ([2]; 48-hour, safety population) was 25 (0.9) no. (%). For the same molecule, the MI ([2]; 48-hour, safety population) was 193 (7.3) no. (%), the Mortality/MI/IDR ([2]; 48-hour, safety population) was 212 (8.0) no. (%) and the “Q-wave MI” value ([2]; 48-hour, safety population) was 9 (0.3) no. (%). For the same molecule, the Stent thrombosis ([2]; 48-hour, safety population) was 16 (0.6) no. (%), the Stroke ([2]; 48-hour, safety population) was 5 (0.2) no. (%) and the “Angiographic complications (site reported): Abrupt vessel closure” value ([2]; ITT) was 16 (0.6). The “Angiographic complications (site reported): Acute stent thrombosis” value ([2]; ITT) was 5 (0.2), the “Angiographic complications (site reported): Need for urgent CABG” value (“Angiographic complications … for urgent CABG” below) ([2]; ITT) was 4 (0.2) and the “Angiographic complications (site reported): New thrombus or suspected thrombus” value ([2]; ITT) was 15 (0.6). For the same molecule, the “Angiographic complications (site reported): Threatened abrupt closure” value ([2]; ITT) was 9 (0.3), the “Angiographic complications (site reported): Unsuccessful procedure” value ([2]; ITT) was 97 (3.7) and the “Angiographic complications (site reported): Abrupt vessel closure” value ([2]; MITT) was 16 (0.6). The “Angiographic complications (site reported): Acute stent thrombosis” value ([2]; MITT) was 5 (0.2), the “Angiographic complications … for urgent CABG” value ([2]; MITT) was 3 (0.1) and the “Angiographic complications (site reported): New thrombus or suspected thrombus” value ([2]; MITT) was 15 (0.6). The “Angiographic complications (site reported): Threatened abrupt closure” value ([2]; MITT) was 9 (0.3), the “Angiographic complications (site reported): Unsuccessful procedure” value ([2]; MITT) was 95 (3.6) and the “Angiographic complications (site reported): Abrupt vessel closure” value ([2]; Safety population) was 16 (0.6). The “Angiographic complications (site reported): Acute stent thrombosis” value ([2]; Safety population) was 5 (0.2), the “Angiographic complications … for urgent CABG” value ([2]; Safety population) was 3 (0.1) and the “Angiographic complications (site reported): New thrombus or suspected thrombus” value ([2]; Safety population) was 15 (0.6). For the same molecule, the “Angiographic complications (site reported): Threatened abrupt closure” value ([2]; Safety population) was 9 (0.3) and the “Angiographic complications (site reported): Unsuccessful procedure” value ([2]; Safety population) was 95 (3.6).
